Measurements reported in patent US9078872B2, “Antioxidant composition” (Symrise AG, priority 2013, dated 2015).

Assay: ORAC (OARC-fluorescein) determination of the antioxidant effect, Trolox as standard
Conditions: OARC-fluorescein method; calibration curve with Trolox as standard
Procedure: The antioxidant effect and the synergy between the individual components were determined according to the OARC-fluorescein method, in which inhibition time and the inhibition degree are reflected in a measured value. The measurements were performed by means of the device Synergy H4 by BioTek Inc., the calculated values were taken from a calibration curve with Trolox used as a standard. The method is described in more detail, for example, in the publications by Prior et. al., J. Agric Food. Chem. 50, pp. 4437-4444 […] and Dovalos et. al, ibid 52, pp. […] (2004). These publications are incorporated into this patent application by reference with regard to the description of the measuring method.

Structure (SMILES)	ORAC value, Measured
COc1cc(C=CC(=O)O)cc(OC)c1O (stereo in doubt) [Example V2, Sinapinic acid]	11.459
O=C(O)/C=C/c1ccc(O)c(O)c1 [Example V1, Caffeic acid]	21.587
